Values after ≈ are worked out from the molar mass of the structure shown.

For data set [1], the system named is Staphylococcus aureus 01A1095, Mac-R. The data set is described as follows: MIC against ribosome-based resistance phenotypes. The conditions noted are these: read-out: Minimum Inhibitory Concentration (MIC). Type of data set: cell-based.
Data set [2] has as its system S. aureus ATCC 29213. The data set is described as follows: Broth microdilution MIC (CLSI). Type of data set: cell-based.
Data set [3] has as its system S. aureus ATCC 29213. The data set is described as follows: Agar dilution MIC (CLSI reference method). Format: cell-based. The conditions noted are these: Staphylococcus aureus, ATCC29213.
For data set [4], the system named is B. thetaiotaomicron ATCC 29741. As to the kind of experiment: microbe, parasite or virus in culture. Format: cell-based. Conditions: for MIC: Bacteroides thetaiotaomicron, ATCC29741, read-out: MIC, Broth.
Data set [5] is described as follows: Solubility of salts in water by HPLC at 23° C. Format: physicochemical. Conditions: for Adjusted pH: pH after adjustment to approximately 3.5; for Native pH: supernatant of saturated solution in water. Here is the method: In another set of experiments, solubility of various radezolid salts was determined by HPLC. Approximately 1 mL of saturated solution (with excess of solid in solution) of each salt was prepared in water. The mixture was further mixed overnight on a slurry wheel then centrifuged on a desktop centrifuge at maximum speed for approximately 5 min. The supernatant was collected, and pH was measured. Solubility was determined at the native pH. Then the pH was adjusted to approximately 3.5 with sodium hydroxide solution or an acid solution in which salt was generated. The supernatant was filtered through a 0.2 µm nylon syringe filter and diluted into 0.1% formic acid solution immediately after filtration for HPLC. All HPLC analyses were performed using an Agilent 1100 series liquid chromatograph equipped with a diode array detector, degasser, quaternary pump, and an autosampler. […] The column temperature was set to 30° C., and the detector wavelength was 270 nm with a bandwidth of 8 nm and a reference wavelength of 360 nm. The mobile phase A was 0.1% formic acid in water (HPLC grade), mobile phase B was 0.1% formic acid in methanol (HPLC grade). […] The injection volume was 5 μL.

A short description of data set [6]: Dynamic vapor sorption/desorption (DVS). Format: physicochemical. The procedure:
Dynamic vapor sorption/desorption (DVS) data were collected on a VTI SGA-100 Vapor Sorption Analyzer. […] Samples were not dried prior to analysis. Equilibrium criteria used for analysis were less than 0.0100% weight change in 5 minutes, with a maximum equilibration time of 3 hours if the weight criterion was not met. Data were not corrected for the initial moisture content of the samples. Sodium chloride and polyvinylpyrrolidine (PVP) were used as calibration standards.

A further data set can be described thus: physchem. Conditions: pH 5.5, aqueous buffer. Type of data set: physicochemical.
Data set [7] is described as follows: Solubility of salts in approved topical solvents. Type of data set: physicochemical. Here is the method:
The solubility of radezolid HCl salt in various approved topical solvents was measured at 19-21° C. by adding a known amount of the radezolid HCl salt to a known amount of the solvent. Increasing amounts of the radezolid HCl salt were added if the solvent was not saturated.
The solubility of radezolid esylate and mesylate salts in various approved topical solvents was measured at 19-21° C. by adding a known amount of the radezolid salts to a known amount of the solvent. Increasing amounts of the radezolid salts were added if the solvent was not saturated.

The conditions of data set [8]: in vivo.
A short description of data set [9]: Long-term rat safety study (body weight, survival, clinical pathology, exposure).
A further data set relates to G. vaginalis ATCC 14018. As to the kind of experiment: Agar dilution MIC (CLSI reference method). Type of data set: cell-based. The conditions noted are these: G. vaginalis (isolates of Table 1). A general note: In agar dilution the substance is mixed into plates at graded concentrations.
Data set [10] is described as follows: Solubility of free base in oily excipients. The conditions noted are these: 19-21° C. Format: physicochemical. Here is the method: The solubility of radezolid free base in various oily excipients was measured at 19-21° C. by adding a known amount of the free base to a known amount of the oily excipients. Increasing amounts of the free base were added if the oily excipient was not saturated.
In some embodiments, facial acne formulations are disclosed herein. In some embodiments, the amount of oil in an emulsion base (cream or lotion) is between 10-15% w/w. In further embodiments, the amount of oil in an emulsion base (cream or lotion) is less than 10%. To obtain a 1% w/w formulation of the free base dissolved in a dispersed oil phase, its solubility in that oil phase needs to be approximately 10% w/w. Radezolid free base was screened in oily excipients at a level of approximately 5% w/w. If an oily excipient could not dissolve at least 5% w/w, it would be unlikely to contribute to higher solubility in other oily excipients (i.e. low potential for synergy).

Another data set deals with P. acnes ATCC 11828. The data set is described as follows: Agar dilution MIC (CLSI reference method). Type of data set: cell-based. The conditions noted are these: P. acnes (isolates of Table 1).
For data set [11], the system named is P. granulosum ATCC 25746. As to the kind of experiment: Agar dilution MIC (CLSI reference method). Type of data set: cell-based.
Data set [12] has as its system P. granulosum ATCC 25746. The data set is described as follows: Broth microdilution MIC (CLSI). Type of data set: cell-based. In general terms: In broth dilution the organism is exposed to a series of concentrations in liquid medium.
The test system of data set [13] is mammalian cells (e.g., defense cells, macrophages, lung cells, and non-phagocytic cells). The conditions noted are these: cited from earlier work.
For another data set, the system named is G. vaginalis ATCC 49145. As to the kind of experiment: Broth microdilution MIC (CLSI). Format: cell-based. Conditions: G. vaginalis 49145.
Data set [14] in a line: Granuloma pouch: bacterial burden and radezolid levels in pouch and plasma. Format: in vivo. The conditions noted are these: FIGS. 3-4.
In the next data set the test system is F. magna ATCC 15794. The data set is described as follows: Agar dilution MIC (CLSI reference method). Format: cell-based.
The next data set deals with ten isolates (ATCC). Type of data set: cell-based. Conditions: for all organisms.
Data set [15] can be described thus: Solubility of salts in water, visual/microscopic. Here is the method: Approximately 2-3.5 mg of each salt was weighed into a glass vessel at ambient temperature. HPLC grade water, 200 μL, was added to each and stirred with a stir bar for two hours. Samples were inspected for solubility both visually and/or microscopically using a Carl Zeiss SV8 stereomicroscope.

Consider `CC[C@H]1OC(=O)[C@H](C)[C@@H](O[C@H]2C[C@@](C)(OC)[C@@H](O)[C@H](C)O2)[C@H](C)[C@@H](O[C@@H]2O[C@H](C)C[C@H](N(C)C)[C@H]2O)[C@](C)(O)C[C@@H](C)CN(C)[C@H](C)[C@@H](O)[C@]1(C)O` [Azithromycin, azithromycin], for which the MIC in [1] stood at 128 µg/mL (≈ 171 µM).

Regarding `CCC[C@@H]1C[C@@H](C(=O)N[C@@H]([C@H]2O[C@H](SC)[C@H](O)[C@@H](O)[C@H]2O)[C@H](C)Cl)N(C)C1` [Clindamycin, clindamycin], the “MIC lower than radezolid” value in the data set on S. aureus ATCC 29213 [2] is reported as 8 fold. The MIC against S. aureus ATCC 29213 [3] stood at 0.25 µg/mL (≈ 0.588 µM).

Regarding `C[C@H]1c2cccc(O)c2C(=O)C2=C(O)[C@]3(O)C(=O)C(C(N)=O)=C(O)[C@@H](N(C)C)[C@@H]3[C@@H](O)[C@@H]21` [DOX, doxycycline], the “MIC lower than radezolid” value in the data set with S. aureus ATCC 29213 [2] is reported as 4 fold. Also, the “MIC more potent than radezolid” value in data set [4] (B. thetaiotaomicron) worked out at 4 fold. Also, in [4], the MIC stood at 2 µg/mL (≈ 4.5 µM).

On to `CC[C@H]1OC(=O)[C@H](C)[C@@H](O[C@H]2C[C@@](C)(OC)[C@@H](O)[C@H](C)O2)[C@H](C)[C@@H](O[C@@H]2O[C@H](C)C[C@H](N(C)C)[C@H]2O)[C@](C)(O)C[C@@H](C)C(=O)[C@H](C)[C@@H](O)[C@]1(C)O` [ERY, erythromycin], for which, in data set [4], the MIC came to 16 µg/mL (≈ 21.8 µM).

As to `O=S(=O)(O)CCS(=O)(=O)O` [Ethane-1,2-disulfonate], in data set [5], the “Adjusted pH” value turned out to be 3.6 and the “Native pH” value is 2.0. Further, the “Solubility at Native pH” value in data set [5] (water, 23° C., HPLC) is over 133.2 mg/mL. For the same compound, the “Solubility at Adjusted pH” value in [5] (water, 23° C., HPLC, pH adjusted to approximately 3.5) is recorded as over 116.9 mg/mL. Also, in [6], the “DVS Desorption: weight loss from 95 to 5% RH” value is on record as “Desorption: 2.388% weight loss” and the “DVS Sorption: weight loss upon equilibration at 5% RH” value is listed as “Sorption: 0.017% weight loss”.

As for `CC(=O)NC[C@H]1CN(c2ccc(-c3ccc(CNCc4c[nH]nn4)cc3)c(F)c2)C(=O)O1.Cl` [Hydrochloride, (5S)—N-[3-(2-Fluoro-4′-{[(1H-[1,2,3]triazol-4-ylmethyl)-amino]-methyl}-biphenyl-4-yl)-2-oxo-oxazolidin-5-ylmethyl]-acetamide Chloride], the Solubility was over 100 µg/mL in the data set “physchem”; 1700 µg/mL in [5] (pH 4.6, thermodynamic from solid, water, 23° C., HPLC, read-out: Solubility at Native pH); under 0.2 % w/w in data set [7] (50% Ethanol/50% phosphate buffer (pH = 7.4), 19-21° C.); under 0.6 % w/w in data set [7] (50% Ethanol/50% water, 19-21° C.); under 0.2 % w/w in [7] (Diethylene glycol monoethyl ether (Transcutol), 19-21° C.); under 0.2 % w/w in [7] (Ethanol, 19-21° C.). Moreover, the Solubility was under 0.2 % w/w in data set [7] (Glycerin, 19-21° C.); under 0.2 % w/w in data set [7] (Hexylene glycol, 19-21° C.); under 0.2 % w/w in data set [7] (PEG 300, 19-21° C.); under 0.2 % w/w in [7] (Phosphate buffer (pH = 7.4), 19-21° C.); under 0.2 % w/w in data set [7] (Propylene glycol, 19-21° C.). In data set [5], the “Adjusted pH” value worked out at 3.5. Moreover, in data set [5], the “Native pH” value is recorded as 4.6. The “DVS Desorption: weight loss from 95 to 5% RH” value in data set [6] is listed as “Desorption: 0.069% weight loss”. Also, in [6], the “DVS Sorption: weight gain from 5 to 95% RH” value is 0.064% weight gain from 5 to. Further, the “DVS Sorption: weight gain upon equilibration at 5% RH” value in [6] was “Sorption: 0.03% weight gain”.

In the case of `CC(=O)NC[C@H]1CN(c2ccc(N3CCOCC3)c(F)c2)C(=O)O1` [Linezolid, linezolid, reference compound], the bone marrow cellularity result in [8] (rat, 100 mg/kg/day) was “decreased cellularity of sternal and femoral bone marrow”. In the data set on S. aureus ATCC 29213 [3], this compound had an MIC of 2 µg/mL (≈ 5.93 µM). The “hematology at unscheduled euthanization” value in [9] (rat, 100 mg/kg/day, day 75) is “decreased red cell mass, absolute reticulocyte and neutrophil counts”.

In the case of `Cc1ncc([N+](=O)[O-])n1CCO` [MET, metronidazole], the MIC in data set [4] is 4 µg/mL (≈ 23.4 µM).

Take `CC(=O)NC[C@H]1CN(c2ccc(-c3ccc(CNCc4cnn[nH]4)cc3)c(F)c2)C(=O)O1` [Radezolid, N-[3-(2-Fluoro-4′-{[(1H-[1,2,3]triazol-4-ylmethyl)-amino]-methyl}-biphenyl-4-yl)-2-oxo-oxazolidin-5-(S)-ylmethyl]-acetamide]: the survival in data set [8] (both, rat) is given as 100%. The “safety in long-term rat studies, overall” value in data set [8] is “good safety”. The “changes in hematology, coagulation, clinical chemistry, or urinalysis” value in data set [8] (rat) is on record as “No test article-related changes were observed”. For the same compound, the “Agar dilution MIC more potent than linezolid” value in the data set on G. vaginalis ATCC 14018 was found to be 8 fold; in the data set with P. acnes ATCC 11828, 4 fold; in the data set on P. granulosum ATCC 25746 [11] it was 8 fold; in the data set on F. magna ATCC 15794, 4 fold. The Solubility in data set [10] (Benzyl benzoate (BB)) is given as under 1.5 % w/w; in data set [10] (Cyclomethicone), under 0.75 % w/w; in [10] (Diisopropyl adipate (DIA)) it was under 1.5 % w/w; in data set [10] (Mineral oil) it was under 1 % w/w; in [10] (Oleic acid) it was under 0.75 % w/w. Also, the “Broth microdilution: more active than linezolid” value in the data set on P. granulosum ATCC 25746 [12] and in the data set with G. vaginalis ATCC 49145 was 8 fold in each case. Also, the “accumulation in mammalian cells, greater extent than linezolid” value in [13] was 17 fold. Also, in data set [13], the “share accumulating in the cytosol of cells” value was “Approximately 60%”. Besides, the “share accumulating in the lysosome” value in [13] is reported as “approximately 40%”. The “radezolid levels in granuloma pouch versus plasma over time” value in [14] is on record as “remain high in granuloma pouch even as they decline in the plasma”. Moreover, the MIC in the data set on S. aureus ATCC 29213 [3] is 1 µg/mL (≈ 2.28 µM). In addition, the “agar dilution MICs, range over organisms” value in the data set on ten isolates (ATCC) fell in the range of 0.06 to 1 µg/mL. In data set [9] (rat 200 mg/kg Day 29 vs human 300 mg), the “Safety margin (Rat NOAEL AUC/Human efficacious AUC)” value amounted to 30.8x.

On to `O=C(O)c1ccccc1O` [Salicylate], for which the Solubility in data set [15] is under 30 µg/mL.

For the compound `CN(C)[C@@H]1C(O)=C(C(N)=O)C(=O)[C@@]2(O)C(O)=C3C(=O)c4c(O)cccc4[C@@](C)(O)[C@H]3C[C@@H]12` [TET, tetracycline], the MIC in data set [4] stood at 8 µg/mL (≈ 18 µM).

For the compound Fumarate, the Solubility in data set [15] (HPLC grade water, ambient temperature) is 2600 µg/mL.

Phosphate: the Solubility in data set [15] worked out at 1100 µg/mL.

These data come from patent publication US20190358206A1, “TOPICAL FORMULATIONS OF BIARYL HETEROCYCLIC COMPOUNDS AND METHODS OF USE THEREOF” (Melinta Subsidiary Corp., priority 2016, published 2019).
